Patent US9637451B2, “Indole compound” (ASTELLAS PHARMA INC., priority 2014, dated 2017)

How the values were obtained:
[1] = CSF-to-plasma unbound concentration ratio in rat after intravenous administration; type: in vivo; conditions: CSF and plasma (unbound), iv, 15 minutes after intravenous administration, fp by ultracentrifugation method
[2] = target: T1, human MT2 receptor (Homo sapiens, UniProt P49286); assay: Activation of human MT2 receptor in receptor-expressing cells, intracellular Ca2+ by FLIPR; type: cell-based
T1 construct: expressed in transfected cells
T1 sequence (P49286 1-362): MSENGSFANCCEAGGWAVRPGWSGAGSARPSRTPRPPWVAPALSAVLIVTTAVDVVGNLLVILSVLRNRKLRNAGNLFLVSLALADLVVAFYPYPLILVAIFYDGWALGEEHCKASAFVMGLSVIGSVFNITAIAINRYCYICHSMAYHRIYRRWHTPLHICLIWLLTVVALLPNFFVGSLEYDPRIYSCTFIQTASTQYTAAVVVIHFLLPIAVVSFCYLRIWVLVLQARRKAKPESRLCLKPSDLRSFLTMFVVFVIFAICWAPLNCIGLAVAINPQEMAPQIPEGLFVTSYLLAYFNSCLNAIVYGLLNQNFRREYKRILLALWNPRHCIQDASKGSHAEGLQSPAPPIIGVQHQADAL

CC(=O)NCCc1c[nH]c2cc(F)c(OCCOc3ccn(C)n3)cc12 [Example 6, N-[2-(6-fluoro-5-{2-[(1-methyl-1H-pyrazol-3-yl)oxy]ethoxy}-1H-indol-3-yl)ethyl]acetamide]
Kp uu at 0.25 h [1]: 0.06 | EC50 ([2]; HEK293 cells stably expressing human MT2 and Gq/i chimeric G protein, Ca2+ FLIPR): 10 nM | Emax ([2]; maximum reaction by ramelteon taken as 100%): 119%
